Target: T1, APC family lysine-specific permease (Salmonella typhimurium (strain LT2 / SGSC1412 / ATCC 700720), UniProt Q8ZNK9)
T1 sequence (Q8ZNK9 whole entry): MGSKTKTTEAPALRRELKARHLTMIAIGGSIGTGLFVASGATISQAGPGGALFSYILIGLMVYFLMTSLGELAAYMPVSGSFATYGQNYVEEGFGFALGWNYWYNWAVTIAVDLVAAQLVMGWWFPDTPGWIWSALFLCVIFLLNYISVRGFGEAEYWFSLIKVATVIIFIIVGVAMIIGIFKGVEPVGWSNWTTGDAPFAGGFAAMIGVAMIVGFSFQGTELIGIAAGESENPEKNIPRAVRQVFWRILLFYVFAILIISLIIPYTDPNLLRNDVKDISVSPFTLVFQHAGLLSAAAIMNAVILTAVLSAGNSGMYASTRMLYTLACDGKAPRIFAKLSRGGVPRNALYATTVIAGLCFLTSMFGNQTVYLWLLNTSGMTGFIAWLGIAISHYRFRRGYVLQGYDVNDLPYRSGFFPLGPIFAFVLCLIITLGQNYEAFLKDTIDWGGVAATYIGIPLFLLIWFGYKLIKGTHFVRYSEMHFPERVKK
Assay: Isothermal Titration Calorimetry (ITC)
Details: pH 5.9; 20 °C
Protocol: ITC measurements were carried out at 20 °C with a VP-ITC calorimeter (GE Healthcare, MicroCal, Inc.) consisting of a 1.45-ml reaction cell. STM2200 in 20 mM MES-NaOH, 150 mM NaCl, 0.025% (w/v) β-DDM, pH 5.9 at concentrations ranging between 15 and 30 μM was titrated with ligands under conditions where the sum of the ionic strengths of ligand and NaCl was always 150 mM. After an initial 4-μl injection, all subsequent ligand additions consisted of 5 μl every 240-300 s. Stirring was at 307 rpm.

Row | SMILES | Kd [µM]
1 | NCCCC[C@H](N)C(=O)O [(2S)-2,6-diaminohexanoic acid] | 40
2 | NCCCC[C@@H](N)C(=O)O [(2R)-2,6-diaminohexanoic acid] | 1800
